Test system: 439559-082-T-J2-PDC complex spheroid growth
Test: Anticancer human tumor 439559-082-T-J2-PDC patient-derived colon adenocarcinoma cell line growth inhibition [Asc]
Details: for IC50: curve of first compound; for viability, T/C: stronger effect = lower value
How it was run: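 Spheroid model: tumor line + HUVEC + hMSC. Single agents and combinations; top conc. at/near clinical Cmax (10 microM if undetermined), half-log dilutions. DMSO stocks at 800-fold test concentration.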
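Note: spheroids exposed to agents for 7 days starting day 3 after seeding.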
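Throughout, for viability, T/C: percent of DMSO vehicle control viability with 100% = vehicle.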

Cc1nc(N2CCC3(CC2)COC(C)C3N)c(CO)nc1Sc1ccnc(N)c1Cl (stereo not given) + Cc1c(S(C)(=O)=O)c(-c2cc(F)cc(N3CCN(c4ccc(NS(=O)(=O)c5ccc(NC(CCN6CCC(C(=O)OCCCP(=O)(O)O)CC6)CSc6ccccc6)c(S(=O)(=O)C(F)(F)F)c5)cc4)CC3)c2)c(-c2ccc(Cl)cc2)n1C(C)C
IC50 (second compound 0.1 µM): > 3 µM
IC50 (second compound 0.316 µM): > 3 µM
IC50 (second compound 1 µM): > 3 µM
IC50 (second compound 3.16 µM): > 3 µM
IC50 (second compound 10 µM): 2.75 µM
viability, T/C (second compound 0.1 µM, first compound 0.00949 µM): 109%
viability, T/C (second compound 0.1 µM, first compound 0.03 µM): 115%
viability, T/C (second compound 0.1 µM, first compound 0.0949 µM): 100%
viability, T/C (second compound 0.1 µM, first compound 0.3 µM): 82.6%
viability, T/C (second compound 0.1 µM, first compound 0.949 µM): 86.5%
viability, T/C (second compound 0.1 µM, first compound 3 µM): 73.4%
viability, T/C (second compound 0.316 µM, first compound 0.00949 µM): 96.4%
viability, T/C (second compound 0.316 µM, first compound 0.03 µM): 107%
viability, T/C (second compound 0.316 µM, first compound 0.0949 µM): 103%
viability, T/C (second compound 0.316 µM, first compound 0.3 µM): 84.5%
viability, T/C (second compound 0.316 µM, first compound 0.949 µM): 77.9%
viability, T/C (second compound 0.316 µM, first compound 3 µM): 72.4%
viability, T/C (second compound 1 µM, first compound 0.00949 µM): 89.5%
viability, T/C (second compound 1 µM, first compound 0.03 µM): 97.5%
viability, T/C (second compound 1 µM, first compound 0.0949 µM): 98.2%
viability, T/C (second compound 1 µM, first compound 0.3 µM): 76.4%
viability, T/C (second compound 1 µM, first compound 0.949 µM): 63%
viability, T/C (second compound 1 µM, first compound 3 µM): 70.4%
viability, T/C (second compound 3.16 µM, first compound 0.00949 µM): 84%
viability, T/C (second compound 3.16 µM, first compound 0.03 µM): 95.7%
viability, T/C (second compound 3.16 µM, first compound 0.0949 µM): 92.1%
viability, T/C (second compound 3.16 µM, first compound 0.3 µM): 63.6%
viability, T/C (second compound 3.16 µM, first compound 0.949 µM): 65.5%
viability, T/C (second compound 3.16 µM, first compound 3 µM): 56.7%
viability, T/C (second compound 10 µM, first compound 0.00949 µM): 74.3%
viability, T/C (second compound 10 µM, first compound 0.03 µM): 75%
viability, T/C (second compound 10 µM, first compound 0.0949 µM): 72.7%
viability, T/C (second compound 10 µM, first compound 0.3 µM): 60.2%
viability, T/C (second compound 10 µM, first compound 0.949 µM): 60.3%
viability, T/C (second compound 10 µM, first compound 3 µM): 49.1%

— PubChem BioAssay AID1963423 (Molecular Pharmacology Branch, DTP, NCI, 2024)
